In patent US20180371018A1, “POLYPEPTIDE COMPOUND, PREPARATION METHOD THEREFOR AND USE THEREOF” (priority 2015, published 2018):

Key:
[1] = tested on: Hepatoma 22 (H22) solid tumors; experiment: Inhibition of Hepatoma 22 (H22) solid tumors in mice, peptides with different number of copies; format: in vivo, Mus Musculus Balb/c female mice; details: positive medicine, 20 mg/kg, intraperitoneal injection, 1 time/day, 5 days
[2] = tested on: Hepatoma 22 (H22) solid tumors; experiment: Inhibition of Hepatoma 22 (H22) solid tumors in mice, five-copy peptides; format: in vivo, Mus Musculus Balb/c female mice; details: positive medicine, 20 mg/kg, intraperitoneal injection, 1 time/day, 5 days

## O=c1[nH]cc(F)c(=O)[nH]1 [Peptide 5-FU, 5-fluorouracil]
[1]
  Tumor inhibition rate (%): 51.62%
  Tumor weight: 1.135 ± 0.248 g
[2]
  Average tumor weight: 1.135 ± 0.248 g
  Tumor inhibition rate (%): 51.62%
